From patent US8389505B2, “Adamantane derivatives of AZA-crown ethers and their use in treatment of tumor” (Rudjer Boskovic Institute, priority 2009, dated 2013)

Legend:
Type in all cases: cell-based
[1] = system: H 460 (lung carcinoma); assay: MTT proliferation assay, H 460 cells; conditions: Homo sapiens, NCI-H460, 72 hours incubation, read-out: IC50 (concentration that causes 50% growth inhibition), H 460
Method: (§1) The described assay was used to test the effects of compounds on the proliferation of various human tumor cell lines, whereby cytostatic and cytotoxic effects on cells can be differentiated. The experiments were carried out on human cell lines, which were derived from 6 tumor types. The following cell lines were used: MCF-7 (breast carcinoma), SW 620 (colon carcinoma), HCT 116 (colon carcinoma), MOLT-4 (acute lymphoblastic leukemia), H 460 (lung carcinoma), HeLa (cervical carcinoma), MiaPaCa-2 (pancreatic carcinoma).
(§2) MCF-7, SW 620, HCT 116, HeLa, MiaPaCa-2 and H 460 cell lines were cultured as monolayers and maintained in Dulbecco's modified Eagle medium (DMEM), while MOLT-4 cells were cultured in suspension in nutritive medium RPMI 1640, both supplemented with 10% fetal bovine serum (FBS), 2 mM L-glutamine, 100 U/ml penicillin and 100 μg/ml streptomycin in a humidified atmosphere with 5% CO2 at 37° C.
(§3) The panel cell lines were inoculated onto a series of standard 96-well microtiter plates on day 0, at 1×10^4 to 3×10^4 cells/ml, depending on the doubling times of the specific cell line. Test agents were added next day to the cell lines in five consecutive 10-fold dilutions (10^−8 to 10^−4 M) and incubated for a further 72 hours. Working dilutions were freshly prepared on the day of testing. The solvent (DMSO) was also tested for eventual inhibitory activity by adjusting its concentration to be the same as in working concentrations. After 72 hours of incubation the cell growth rate was evaluated by performing the MTT assay (Mossman, Methods Immunol, 1983, 65, 55-63.), which detects dehydrogenase activity in viable cells. The MTT Cell Proliferation Assay is a colorimetric assay system, which measures the reduction of a tetrazolium component (MTT) into an insoluble formazan produced by mitochondria of viable cells. For this purpose the substance treated medium was discarded and MTT was added to each well in concentration of 20 μg/40 μl. After four hours of incubation the precipitates were dissolved in 160 μl of dimethylsulphoxide (DMSO). The absorbance (OD, optical density) was measured on a microplate reader at 570 nm. The absorbance is directly proportional to the cell viability. The percentage of growth (PG) of the cell lines was calculated according to one of the following two equations (according to the National Cancer Institute protocols, www.dtp.nci.nih.gov): If (mean ODtest−mean ODtzero)≧0 then PG=100×(mean ODtest−mean ODtzero)/(mean ODctrl−mean ODtzero). If (mean ODtest−mean ODtzero)<0 then: PG=100×(mean ODtest−mean ODtzero)/ODtzero.
(§4) Mean ODtzero=the average of optical density measurements before exposure of cells to the test compound.
(§5) Mean ODtest=the average of optical density measurements after the desired period of time.
(§6) Mean ODctrl=the average of optical density measurements after the desired period of time with no exposure of cells to the test compound.
(§7) Each test point was performed in quadruplicate in three individual experiments. The results were expressed as IC50, a concentration necessary for 50% of proliferation inhibition. Each result is a mean value from three separate experiments. The IC50 measures the growth inhibitory power of the test agent and represents the concentration that causes 50% growth inhibition. The IC50 is calculated from dose-response curves using linear regression analysis by fitting the test concentrations that give PG values above and below the respective reference value (e.g. 50% of inhibition for IC50). Therefore, a “real” value for any of the response parameters is obtained only if at least one of the tested drug concentrations falls above, and likewise at least one falls below the respective reference value. If however, for a given cell line or test agent all of the tested concentrations produce PGs exceeding the respective reference level of effect (e.g. PG value of 50%), then the highest tested concentration is assigned as the default value. […]

[2] = system: SW 620 (colon carcinoma); assay: MTT proliferation assay, SW 620 cells; conditions: Homo sapiens, 72 hours incubation, read-out: IC50 (concentration that causes 50% growth inhibition), SW 620
Method: as §1, §2, §3, §4, §5, §6, §7

[3] = system: MCF-7 (breast carcinoma); assay: MTT proliferation assay, MCF-7 cells; conditions: Homo sapiens, MCF7, 72 hours incubation, read-out: IC50 (concentration that causes 50% growth inhibition), MCF-7
Method: as §1, §2, §3, §4, §5, §6, §7

[4] = system: HCT 116 (colon carcinoma); assay: MTT proliferation assay, HCT 116 cells; conditions: Homo sapiens, 72 hours incubation, read-out: IC50 (concentration that causes 50% growth inhibition), HCT 116
Method: as §1, §2, §3, §4
(§8) Mean ODtest=the average of optical density measurements after the desired period of time. […]

[5] = system: MOLT-4 (acute lymphoblastic leukemia); assay: MTT proliferation assay, MOLT-4 cells; conditions: Homo sapiens, 72 hours incubation, read-out: IC50 (concentration that causes 50% growth inhibition), MOLT-4
Method: as §1, §2, §3, §4, §8

[6] = system: MiaPaCa-2 (pancreatic carcinoma); assay: MTT proliferation assay, MiaPaCa-2 cells; conditions: Homo sapiens, MIA PaCa-2, 72 hours incubation, read-out: IC50 (concentration that causes 50% growth inhibition), MiaPaCa-2
Method: as §1, §2, §3, §4, §5, §6, §7

[7] = system: HeLa (cervical carcinoma); assay: MTT proliferation assay, HeLa cells; conditions: Homo sapiens, 72 hours incubation, read-out: IC50 (concentration that causes 50% growth inhibition), Hela
Method: as §1, §2, §3, §4, §5, §6, §7

[8] = system: various human tumor cell lines; assay: MTT proliferation assay, panel of tumor cell lines; conditions: up to maximal tested concentration (c=100 μM) during 72 hours, all cell lines of Table 1
Method: as §1, with “carcinoma). […]” for “carcinoma).”
The panel cell lines were inoculated onto a series of standard 96-well microtiter plates on day 0, at 1×10^4 to 3×10^4 cells/ml, depending on the doubling times of the specific cell line. […] After 72 hours of incubation the cell growth rate was evaluated by performing the MTT assay (Mossman, Methods Immunol, 1983, 65, 55-63.), which detects dehydrogenase activity in viable cells. […] The absorbance (OD, optical density) was measured on a microplate reader at 570 nm. The absorbance is directly proportional to the cell viability. The percentage of growth (PG) of the cell lines was calculated according to one of the following two equations (according to the National Cancer Institute protocols, www.dtp.nci.nih.gov): If (mean ODtest−mean ODtzero)≧0 then PG=100×(mean ODtest−mean ODtzero)/(mean ODctrl−mean ODtzero). […]

SMILES | IC50 [1] [µM] | IC50 [2] [µM] | IC50 [3] [µM] | IC50 [4] [µM] | IC50 [5] [µM] | IC50 [6] [µM] | IC50 [7] [µM] | antiproliferative activity [8]
O=C(CC12CC3CC(CC(C3)C1)C2)N1CCOCCOCCN(C(=O)CC23CC4CC(CC(C4)C2)C3)CCOCCOCC1 [Compound 7, N,N′-Bis[1-oxo-2-(1-adamantyl)ethyl]-4,13-diaza-18-crown-6] | 14 ± 1 | 12 ± 5 | 5 ± 2 | 6 | 6 ± 6 |  |  | 
C(CN1CCOCCOCCOCCOCCOCC1)CC12CC3CC(CC(C3)C1)C2 [Compound 2, N-[3-(1-adamantyl)propyl]-aza-18-crown-6] | 15 ± 0.1 | 9 ± 3 | 6 ± 5 |  |  | 11 ± 2 | 14 ± 3 | 
O=C(CC12CC3CC(CC(C3)C1)C2)N1CCOCCOCCOCCOCCOCC1 [Compound 3, N-[1-oxo-2-(1-adamantyl)ethyl]-aza-18-crown-6] | > 100 | > 100 | > 100 |  |  | > 100 | > 100 | 
O=C(CCC12CC3CC(CC(C3)C1)C2)N1CCOCCOCCN(C(=O)CCC23CC4CC(CC(C4)C2)C3)CCOCCOCC1 [Compound 8, N,N′-Bis[1-oxo-3-(1-adamantyl)propyl]-4,13-diaza-18-crown-6] | 11 ± 5 | 19 ± 16 | 2 ± 0.4 | 6 ± 4 | 3 ± 0.5 |  |  | 
C1COCCOCCN(CCC23CC4CC(CC(C4)C2)C3)CCOCCOCCO1 [Compound 1, N-[2-(1-adamantyl)ethyl]-aza-18-crown-6] | 15 ± 0.6 | 9 ± 6 | 8 ± 4 |  |  | 12 ± 0.6 | 16 ± 0.5 | 
O=C(CCC12CC3CC(CC(C3)C1)C2)N1CCOCCOCCOCCOCCOCC1 [Compound 4, N-[1-oxo-3-(1-adamantyl)propyl]-aza-18-crown-6] | 72 ± 7 | 13 ± 2 | 17 ± 5 |  |  | 30 ± 3.4 | 28 ± 7 | 

More lines, main results first:

IC50 [1] [µM] | IC50 [2] [µM] | IC50 [3] [µM] | IC50 [4] [µM] | IC50 [5] [µM] | IC50 [6] [µM] | IC50 [7] [µM] | SMILES | antiproliferative activity [8]
> 100 | > 100 | > 100 | > 100 | > 100 | > 100 | > 100 | C1COCCOCCNCCOCCOCCN1 [Diaza-18-crown-6, diaza-18-crown-6, reference compound] | did not show any antiproliferative activity
4 ± 3 | 2.6 ± 1.9 | 4 ± 0.7 |  |  | 1.7 ± 0.6 | 2.3 ± 1.4 | C1COCCN(CCC23CC4CC(CC(C4)C2)C3)CCOCCOCCN(CCC23CC4CC(CC(C4)C2)C3)CCO1 [Compound 5, N,N′-Bis[2-(1-adamantyl)ethyl]-4,13-diaza-18-crown-6] | 
0.2 ± 0.3 | 1 ± 0.4 | 1 ± 0.4 | 0.4 ± 0.4 | 1 ± 1 |  |  | C(CN1CCOCCOCCN(CCCC23CC4CC(CC(C4)C2)C3)CCOCCOCC1)CC12CC3CC(CC(C3)C1)C2 [Compound 6, N,N″-Bis[3-(1-adamantyl)propyl]-4,13-diaza-18-crown-6] | 
